Measured values as given in patent US8093256B2, “Use of 8-substituted-6,7,8,9-tetrahydropyrimido[1,2-a] pyrimidin-4-one derivatives” (Sanofi-Aventis, priority 2003, dated 2012).
pIC50: −log10 of the molar value. Structures can show the parent of a compound that is named as a salt.

Biological target: GSK3β (Homo sapiens, UniProt P49841)
Assay: Inhibitory activity against GSK3β (33P-ATP phosphorylation of prephosphorylated GS1 peptide, two protocols)
Assay type: biochemical
Protocol: Inhibitory Activity of the Medicament of the Present Invention Against GSK3β Two different protocols can be used. In a first protocol: 7.5 μM of prephosphorylated GS1 peptide and 10 μM ATP (containing 300,000 cpm of 33P-ATP) were incubated in 25 mM Tris-HCl, pH 7.5, 0.6 mM DTT, 6 mM MgCl2, 0.6 mM EGTA, 0.05 mg/ml BSA buffer for 1 hour at room temperature in the presence of GSK3beta (total reaction volume: 100 microliters). In a second protocol: 4.1 μM of prephosphorylated GS1 peptide and 42 μM ATP (containing 260,000 cpm 33P-ATP) were incubated in 80 mM Mes-NaOH, pH 6.5, 1 mM Mg acetate, 0.5 mM EGTA, 5 mM 2-mercaptoethanol, 0.02% Tween 20, 10% glycerol buffer for 2 hours at room temperature in the presence of GSK3beta. Inhibitors were solubilized in DMSO (final solvent concentration in the reaction medium, 1%). The reaction was stopped with 100 microliters of a solution made of 25 g polyphosphoric acid (85% P2O5), 126 ml 85% H3PO4, H2O to 500 ml and then diluted to 1:100 before use. An aliquot of the reaction mixture was then transferred to Whatman P81 cation exchange filters and rinsed with the solution described above. Incorporated 33P radioactivity was determined by liquid scintillation spectrometry. The phosphorylated GS-1 peptide had the following sequence: NH2-[…](P)EDEE-COOH.

Chain of GSK3β (P49841 whole entry, species assumed): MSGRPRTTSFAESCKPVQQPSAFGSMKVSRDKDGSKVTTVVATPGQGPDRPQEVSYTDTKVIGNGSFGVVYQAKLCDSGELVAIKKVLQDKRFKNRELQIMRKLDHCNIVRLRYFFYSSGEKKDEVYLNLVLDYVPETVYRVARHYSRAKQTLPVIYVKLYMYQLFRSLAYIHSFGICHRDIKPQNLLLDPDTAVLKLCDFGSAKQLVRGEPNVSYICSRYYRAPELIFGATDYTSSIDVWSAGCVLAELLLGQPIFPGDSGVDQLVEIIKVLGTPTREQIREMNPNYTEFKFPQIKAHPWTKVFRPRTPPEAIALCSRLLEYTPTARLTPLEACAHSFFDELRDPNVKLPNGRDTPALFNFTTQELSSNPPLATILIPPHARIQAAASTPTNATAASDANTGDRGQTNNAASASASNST

Work on `O=C(CN1c2nc(-c3ccncc3)cc(=O)n2CCC1c1ccncc1)c1cccc(Br)c1` (stereo not shown) [Compound No. 15, 9-[2-(3-Bromo-phenyl)-2-oxo-ethyl]-2,8-dipyridin-4-yl-6,7,8,9-tetrahydro-pyrimido[1,2-a]pyrimidin-4-one hydrochloride (1:2)] yielded a pIC50 of 8.15.

Tested on: not given
Assay: not given

First: O=c1cc(-c2ccncc2)nc2n1CCC(c1ccccc1)N2CC(O)c1cccc(Br)c1 (stereo not shown) [compound 23, 9-[2-Hydroxy-2-(3-bromo-phenyl)-ethyl]-8-phenyl-2-pyridin-4-yl-6,7,8,9-tetrahydro-pyrimido[1,2-a]pyrimidin-4-one]
Second: O=c1cc(-c2ccncc2)nc2n1CCC(c1ccccc1)N2CC(O)c1ccc(Cl)cc1 (stereo not shown) [compound 24, 9-[2-Hydroxy-2-(4-chloro-phenyl)-ethyl]-8-phenyl-2-pyridin-4-yl-6,7,8,9-tetrahydro-pyrimido[1,2-a]pyrimidin-4-one]
The melting point of the first is lower: 170 to 172 °C for the first, 220 to 222 °C for the second.

First: O=c1cc(-c2ccncc2)nc2n1CCC(c1ccncc1)N2CC(O)c1cccc(F)c1 (stereo not shown) [compound 25, 9-[2-(3-Fluoro-phenyl)-2-hydroxy-ethyl]-2,8-dipyridin-4-yl-6,7,8,9-tetrahydro-pyrimido[1,2-a]pyrimidin-4-one]
Second: O=c1cc(-c2ccncc2)nc2n1CCC(c1ccccc1)N2CC(O)c1ccc(F)cc1 (stereo not shown) [compound 26, 9-[2-Hydroxy-2-(4-fluoro-phenyl)-ethyl]-8-phenyl-2-pyridin-4-yl-6,7,8,9-tetrahydro-pyrimido[1,2-a]pyrimidin-4-one]
The melting point of the first is higher: 218 to 220 °C for the first, 201 to 203 °C for the second.

Compared with `O=c1cc(-c2ccncc2)nc2n1CCC(c1ccccc1)N2CC(O)c1ccc(-c2ccccc2)cc1` (stereo not shown) [compound 27, 9-[2-Hydroxy-2-(4-phenyl-phenyl)-ethyl]-8-phenyl-2-pyridin-4-yl-6,7,8,9-tetrahydro-pyrimido[1,2-a]pyrimidin-4-one], `O=c1cc(-c2ccncc2)nc2n1CCC(c1ccccc1)N2CC(O)c1ccc2ccccc2c1` (stereo not shown) [compound 28, 9-[2-Hydroxy-2-naphthalen-2-yl-ethyl]-8-phenyl-2-pyridin-4-yl-6,7,8,9-tetrahydro-pyrimido[1,2-a]pyrimidin-4-one] is higher in melting point: 145 to 147 °C for the first, 190 to 192 °C for the second.
